Earlier results, collected in patent US6133275A, “3-phenylpyrrolidine alpha-1 adrenergic compounds” (Abbott Laboratories, priority 1998, dated 2000).

System: BPH patients
Settings: cited from earlier work; for improvements in urinary flow rates and subjective symptom scores: longer term studies

Row | SMILES | improvements in urinary flow rates and subjective symptom scores | Clinical efficacy in BPH (BPH patients)
1 | COc1cc2nc(N3CCN(C(=O)c4ccco4)CC3)nc(N)c2cc1OC [prazosin] | significant improvements in urinary flow rates and subjective symptom scores | –
2 | COc1cc2nc(N3CCN(C(=O)C4CCCO4)CC3)nc(N)c2cc1OC (stereo not drawn) [terazosin] | significant improvements in urinary flow rates and subjective symptom scores | Clinical efficacy of α1 antagonists in BPH has been demonstrated
